US20210395256A1, “TYROSINE KINASE INHIBITORS, COMPOSITIONS AND METHODS THERE OF” (Betta Pharmaceuticals Co., Ltd., priority 2018, published 2021)
pIC50: −log10 of the molar value. Like-named read-outs stand apart in the source and are kept apart here. One block for each molecule: values may come before it.

How the values were obtained:
[1] = biological target: TrkA kinase (Homo sapiens, UniProt P04629); assay: TrkA kinase assay (mobility shift assay); assay type: biochemical; settings: read-out: Trk A Kinase IC50
TrkA kinase, sequence (P04629 33-796): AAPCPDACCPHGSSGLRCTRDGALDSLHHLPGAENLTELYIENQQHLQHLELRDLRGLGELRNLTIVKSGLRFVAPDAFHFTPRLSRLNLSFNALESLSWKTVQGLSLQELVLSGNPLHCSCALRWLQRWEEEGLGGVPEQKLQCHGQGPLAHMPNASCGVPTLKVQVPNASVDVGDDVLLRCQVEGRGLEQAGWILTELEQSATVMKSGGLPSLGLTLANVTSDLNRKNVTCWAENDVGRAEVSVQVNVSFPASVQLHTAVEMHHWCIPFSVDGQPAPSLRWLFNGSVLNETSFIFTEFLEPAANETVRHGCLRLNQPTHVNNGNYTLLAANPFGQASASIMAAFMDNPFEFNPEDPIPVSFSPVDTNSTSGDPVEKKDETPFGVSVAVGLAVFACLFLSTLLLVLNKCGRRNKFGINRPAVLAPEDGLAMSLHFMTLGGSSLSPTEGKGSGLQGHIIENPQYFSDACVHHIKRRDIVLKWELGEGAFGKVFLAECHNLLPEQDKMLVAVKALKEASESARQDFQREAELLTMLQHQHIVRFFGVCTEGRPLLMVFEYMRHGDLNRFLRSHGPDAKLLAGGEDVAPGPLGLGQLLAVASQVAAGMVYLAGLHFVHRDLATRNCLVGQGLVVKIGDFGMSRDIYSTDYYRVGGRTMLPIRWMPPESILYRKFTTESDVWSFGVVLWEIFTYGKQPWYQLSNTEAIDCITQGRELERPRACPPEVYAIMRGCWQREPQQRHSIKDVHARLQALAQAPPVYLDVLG
Summary of the method: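 Ten-point compound series was preincubated 10 min at room temperature with TrkA, then FAM-peptide plus ATP added in HEPES pH 7.5/Brij-35 buffer and reacted at 28 °C before EDTA quench.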

[2] = Liver microsomes metabolic stability assay, rat; assay type: in vitro ADME; settings: rat liver microsomes 0.5 mg/mL, 37° C.
Experimental: (§1) Example 203 Liver Microsomes Metabolic Stability Assay
(§2) Pooled human liver microsomes (Cat. 452117) were purchased from Corning. Pooled male rat liver microsomes (Cat. R1000) and pooled male mouse liver microsomes (Cat. M1000) were purchased from XENOTECH. Microsomes were stored at −80° C.
(§3) 1) Make a master solution containing phosphate buffer, ultra-pure H2O and MgCl2 solution according to Table 14.
(§4) 2) Two separated experiments were performed as follows.
(§5) a) With NADPH: 10 μL of 20 mg/mL liver microsomes and 40 μL of 10 mM NADPH were added to the incubations. The final concentrations of microsomes and NADPH were 0.5 mg/mL and 1 mM, respectively.
(§6) b) Without NADPH: 10 μL of 20 mg/mL liver microsomes and 40 μL of ultra-pure H2O were added to the incubations. The final concentration of microsomes was 0.5 mg/mL.
(§7) 3) The reaction was started with the addition of 4 μL test compounds solutions or control compound solution (verapamil) at the final concentration of 2 μM and carried out at 37° C.
(§8) 4) Aliquots of 50 μL were taken from the reaction solution at 0, 15, 30, 45 and 60 min. The reaction solutions were stopped by the addition of 4 volumes of cold acetonitrile with 1S (100 nM alprazolam, 200 nM caffeine, 200 nM labetalol and 2 μM ketoprofen). Samples were centrifuged at 3,220 g for 40 minutes. Aliquot of 100 μL of the supernatant was mixed with 100 μL of ultra-pure H2O and then used for LC-MS/MS analysis. All experiments were performed in duplicate.
(§9) The slope value, k, was determined by linear regression of the natural logarithm of the remaining percentage of the parent drug vs. incubation time curve.
(§10) The in vitro half-life (in vitro t1/2) was determined from the slope value:
(§11) Conversion of the in vitro t1/2 (in min) into the in vitro intrinsic clearance (in vitro CLint, in μL/min/mg proteins) was done using the following equation (mean of duplicate determinations): […]
(§12) The control compound (verapamil) was included in the assay. Any value of the compounds that was not within the specified limits will be rejected and the experiment will be repeated.

[3] = biological target: T1, Ba/F3-TPM3-NTRK1 (Homo sapiens, UniProt P04629); assay: Ba/F3-TPM3-NTRK1 cells proliferation assay; assay type: cell-based; settings: 72 h, CellTiter Glo
T1 construct: expressed in transfected cells; host or cells: Ba/F3; the other entry of the earlier key: TPM3 (P06753, Tropomyosin alpha-3 chain)
T1 sequence (P04629 510-796 limits assumed): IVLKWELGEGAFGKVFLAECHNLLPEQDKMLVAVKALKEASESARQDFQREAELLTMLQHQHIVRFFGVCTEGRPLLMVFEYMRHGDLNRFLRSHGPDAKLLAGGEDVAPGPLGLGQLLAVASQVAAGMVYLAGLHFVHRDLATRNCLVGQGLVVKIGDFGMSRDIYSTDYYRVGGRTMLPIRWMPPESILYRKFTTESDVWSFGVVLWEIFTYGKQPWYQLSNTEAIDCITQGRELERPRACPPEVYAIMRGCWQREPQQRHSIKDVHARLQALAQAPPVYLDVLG
Experimental: (§13) Example 202 Ba/F3-TPM3-NTRK1 and Ba/F3-ETV6-NTRK3 cells proliferation assay
(§14) Cell line: Ba/F3 cells with TPM3-NTRK1 or ETV6-NTRK3 fusion mutation gene stably overexpressed named Ba/F3-TPM3-NTRK1 and Ba/F3-ETV6-NTRK3.
(§15) RPMI 1640 and 10% FBS and 1% PS and 2 ug/mL puromycin.
(§16) b) Collect cell to a 15 mL centrifuged tube, centrifuge at 1000 rpm for 5 min. Discard the supernatant, count, and make the cell density at 1.49×10^4 cells/mL, then place it in a 37° C., 5% CO2 incubator.
(§17) a) The test compound (20 mM stock solution) was diluted to 60 μM with 100% DMSO as starting concentration then 3-fold serial diluted with “9+0” concentrations. in a 96-well dilution plate (Thermo, Cat. No. 249944);
(§18) b) The above compound solution was diluted 1:20 times with culture medium to prepare a 10 fold working solution;
(§19) a) Take cells in log phase growth, centrifuge at 1000 rpm for 5 min, then resuspend the cells with culture medium, then count cells;
(§20) b) Cells were seeded to 96-well cell culture plate with density at 2000 cells/well;
(§21) a) Compounds prepared at step 2 were added to cell plate with 15 μL per well, the final concentrations were 300, 100, 33.33, 11.11, 3.70, 1.23, 0.41, 0.14, 0.05 and 0 nM, and the final concentration of DMSO was 0.5%. The blank control well was a culture medium (0.5% DMSO);
(§22) c) The cells were incubated for an additional 72 h in the incubator.
(§23) a) Remove the 96-well cell culture plate and add 50 μl of CTG reagent (CellTiter Glo kit, promega, Cat #G7573).
(§24) b) Plate was shaked for 2 min and then let it cool for 30 min at room temperature.
(§25) c) The Luminescence signal value was read using a PerkinElmer reader.
(§26) Experimental Data Analysis
(§27) Data were analyzed using GraphPad Prism 6.0 software to obtain a fitted curve of compound activity.
(§28) Fit the Compound IC50 from non-linear regression equation:
(§29) Y=Bottom+(Top-Bottom)/(1+10^((Log IC50-X)×HillSlope));
(§30) X: The log of the concentration of the compound; Y: Luminescence value.

[4] = Liver microsomes metabolic stability assay, human; assay type: in vitro ADME; settings: human liver microsomes 0.5 mg/mL, 37° C.
Experimental: as §1, §2, §3, §4, §5, §6, §7, §8, §9, §10, §11, §12

[5] = biological target: T2, Ba/F3-ETV6-NTRK3 (Homo sapiens, UniProt Q16288); assay: Ba/F3-ETV6-NTRK3 cells proliferation assay; assay type: cell-based; settings: 72 h, CellTiter Glo
T2 construct: Ba/F3 cells with TPM3-NTRK1 or ETV6-NTRK3 fusion mutation gene stably overexpressed named Ba/F3-TPM3-NTRK1 and Ba/F3-ETV6-NTRK3; fused on or other part: P41212 (Transcription factor ETV6)
T2 sequence (Q16288 whole entry, the tested form may be a part): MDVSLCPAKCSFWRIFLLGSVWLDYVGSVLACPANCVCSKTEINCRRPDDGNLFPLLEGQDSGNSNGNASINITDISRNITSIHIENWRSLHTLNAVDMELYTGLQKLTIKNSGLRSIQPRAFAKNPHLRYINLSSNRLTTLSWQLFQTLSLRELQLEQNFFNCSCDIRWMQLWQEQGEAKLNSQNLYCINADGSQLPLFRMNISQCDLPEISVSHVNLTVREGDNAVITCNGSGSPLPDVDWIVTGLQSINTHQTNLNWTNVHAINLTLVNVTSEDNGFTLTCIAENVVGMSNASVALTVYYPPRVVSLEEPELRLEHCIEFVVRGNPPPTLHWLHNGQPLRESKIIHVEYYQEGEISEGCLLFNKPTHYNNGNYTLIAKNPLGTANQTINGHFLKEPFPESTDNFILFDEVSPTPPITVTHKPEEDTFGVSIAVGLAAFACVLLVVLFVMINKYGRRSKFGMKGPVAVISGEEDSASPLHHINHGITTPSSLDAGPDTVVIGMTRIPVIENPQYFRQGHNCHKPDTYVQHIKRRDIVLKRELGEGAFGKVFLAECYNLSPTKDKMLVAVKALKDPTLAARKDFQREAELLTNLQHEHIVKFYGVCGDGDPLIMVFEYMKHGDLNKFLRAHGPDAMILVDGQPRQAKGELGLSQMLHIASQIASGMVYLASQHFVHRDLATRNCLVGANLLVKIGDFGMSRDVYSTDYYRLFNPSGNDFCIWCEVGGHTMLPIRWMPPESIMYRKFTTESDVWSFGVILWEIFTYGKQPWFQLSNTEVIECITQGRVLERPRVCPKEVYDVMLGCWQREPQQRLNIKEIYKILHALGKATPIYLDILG
Experimental: as §13, §14, §15, §16, §17, §18, §19, §20, §21, §22, §23, §24, §25, §26, §27, §28, §29, §30

[6] = Liver microsomes metabolic stability assay, mouse; assay type: in vitro ADME; settings: mouse liver microsomes 0.5 mg/mL, 37° C.
Experimental: as §1, §2, §3, §4, §5, §6, §7, §8, §9, §10, §11, §12

[7] = Plasma protein binding (equilibrium dialysis), rat; assay type: in vitro ADME; settings: pH 7.4, 6 hours dialysis; for fraction unbound at 6 h, 1 μM: read-out: Mean % Bound Rat (converted)
Experimental: (§31) Example 204 Plasma Protein Binding Measurements
(§32) The plasma protein binding was measured as the following procedure.
(§33) 1) Preparation of 100 mM sodium phosphate and 150 mM NaCl buffer (PBS)
(§34) A basic solution was prepared by dissolving 14.2 g/L Na2HPO4 and 8.77 g/L NaCl in deionized water and the solution could be stored at 4° C. for up to 7 days. An acidic solution was prepared by dissolving 12.0 g/L NaH2PO4 and 8.77 g/L NaCl in deionized water and the solution could be stored at 4° C. for up to 7 days. The basic solution was titrated with the acidic solution to pH 7.4 and store at 4° C. for up to 7 days. pH was checked on the day of experiment and was adjusted if outside specification of 7.4±0.1.
(§35) Frozen plasma was thawed immediately at room temperature.
(§36) The plasma was centrifuged at 3,220 g for 10 minutes to remove clots and supernatant was collected into a fresh tube. The pH of the plasma was checked and recorded.
(§37) Note: a). Only use plasma that has been thawed no more than twice since arrival. b). Only use plasma within the range of pH 7 to pH 8.
(§38) 3) Preparation of working solutions
(§39) The working solutions of test compounds and control compound ketoconazole were prepared in DMSO at the concentration of 200 μM. And then 3 μL of working solution was removed to mix with 597 μL of human, rat or mouse plasma to achieve a final concentration of 1 μM (0.5% DMSO). Plasma samples were vortexed thoroughly.
(§40) 4) Preparation of dialysis membranes
(§41) The dialysis membranes were soaked in ultrapure water for 60 minutes to separate strips, then in 20% ethanol for 20 minutes, finally in dialysis buffer for 20 minutes.
(§42) 5) Procedure for equilibrium dialysis
(§43) The dialysis apparatus was assembled according to the manufacturer's instruction. Each cell was filled with 120 μL of plasma sample and dialyzed against equal volume of dialysis buffer (PBS). The assay was performed in duplicate. The dialysis plate was sealed and incubated in an incubator at 37° C. with 5% CO2 at 100 rpm for 6 hours. At the end of incubation, seal was removed and 50 μL of samples from both buffer and plasma chambers were transferred to wells of a 96-well plate.
(§44) 6) Procedure for sample analysis
(§45) 50 μL of blank plasma was added to each buffer samples and an equal volume of PBS was supplemented to the collected plasma sample. 300 μL of room temperature quench solution (acetonitrile containing internal standards (1S, 100 nM Alprazolam, 500 nM Labetalol and 2 μM Ketoprofen)) was added to precipitate protein. Samples in plate were vortexed for 5 minutes and centrifuged at 3,220 g for 30 minutes at 4° C. And then 100 μL of the supernatant was transferred to a new 96-well plate with 100 μL or 200 μL water (depends on the LC-MS signal response and peak shape) for LC-MS/MS analysis.
(§46) Calculate the percentages of test compound and control compound bound as follows:
(§47) % Free=(Peak Area Ratiobuffer chamber/Peak Area Ratioplasma chamber)*100
(§48) % Recovery=(Peak Area Ratiobuffer chamber+Peak Area Ratioplasma chamber)/Peak Area Ratio total sample*100
(§49) Peak Area Ratiobuffer chamber means the conc for free fraction
(§50) Peak Area Ratioplasma chamber means the conc for both free and bound fraction
(§51) Peak Area Ratiototal sample means the conc for starting sample before incubation

[8] = Plasma protein binding (equilibrium dialysis), human; assay type: in vitro ADME; settings: pH 7.4, human plasma, 1 μM, 6 hours dialysis; for fraction unbound at 6 h, 1 μM: read-out: Mean % Bound Human (converted)
Experimental: as §31, §32, §33, §34, §35, §36, §37, §38, §39, §40, §41, §42, §43, §44, §45, §46, §47, §48, §49, §50, §51

[9] = Plasma protein binding (equilibrium dialysis), mouse; assay type: in vitro ADME; settings: pH 7.4, 6 hours dialysis; for fraction unbound at 6 h, 1 μM: read-out: Mean % Bound Mouse (converted)
Experimental: as §31, §32, §33, §34, §35, §36, §37, §38, §39, §40, §41, §42, §43, §44, §45, §46, §47, §48, §49, §50, §51

[10] = biological target: NTRK1-G595R (Homo sapiens, UniProt P04629, G595R); assay: NTRK1-G595R cell proliferation assay (Table 13); assay type: cell-based
NTRK1-G595R, sequence (P04629 33-796 G595R): as the sequence (P04629 33-796) above, with G563R counted along it

Structure (SMILES): O=C(O)c1nnc(-c2cnn3ccc(N4CCC[C@@H]4c4cc(F)ccc4F)nc23)[nH]1 [Compound 17, (R)-5-(5-(2-(2,5-difluorophenyl)pyrrolidin-1-yl)pyrazolo[1,5-a]pyrimidin-3-yl)-4H-1,2,4-triazole-3-carboxylic acid]
pIC50 ([1]; class symbols): < 7.30
half-life at 2 μM ([2]; male, read-out: t1/2 Rat): 10.4 h
CLint Rat ([2]; 2 μM): 0.00 μL/min/mg proteins
pIC50 [3]: 8.39
t1/2 Human ([4]; 2 μM): ∞
microsomal CLint at 2 μM [4]: 0.27 µL/min/mg
pIC50 [5]: 8.45
microsomal CLint at 2 μM ([6]; male): 2.23 µL/min/mg
t1/2 Mouse ([6]; 2 μM): ∞

Structure (SMILES): NC1(c2nnc(-c3cnn4ccc(N5CCC[C@@H]5c5cc(F)ccc5F)nc34)[nH]2)CCC1 [Compound 24, (R)-1-(5-(5-(2-(2,5-difluorophenyl)pyrrolidin-1-yl)pyrazolo[1,5-a]pyrimidin-3-yl)-4H-1,2,4-triazol-3-yl)cyclobutan-1-amine]
pIC50 ([1]; numeric values): 7.93
recovery at 6 h, 1 μM [7]: 82.5%
fraction unbound at 6 h, 1 μM [7]: 0.164
recovery at 6 h, 1 μM [8]: 85.9%
fraction unbound at 6 h, 1 μM [8]: 0.126
recovery at 6 h, 1 μM [9]: 86.5%
fraction unbound at 6 h, 1 μM [9]: 0.0817

Structure (SMILES): C[C@@H](O)c1nnc(-c2cnn3ccc(N4CCC[C@@H]4c4cc(F)ccc4F)nc23)[nH]1 [Compound 34, (R)-1-(5-(5-((R)-2-(2,5-difluorophenyl)pyrrolidin-1-yl)pyrazolo[1,5-a]pyrimidin-3-yl)-4H-1,2,4-triazol-3-yl)ethan-1-ol]
pIC50 ([1]; numeric values): 9.15
recovery at 6 h, 1 μM [7]: 92.4%
fraction unbound at 6 h, 1 μM [7]: 0.109
pIC50 [3]: 8.48
recovery at 6 h, 1 μM [8]: 91.7%
fraction unbound at 6 h, 1 μM [8]: 0.0868
recovery at 6 h, 1 μM [9]: 98.6%
fraction unbound at 6 h, 1 μM [9]: 0.0918

More lines, now with the values ahead:

pIC50 ([1]; numeric values): 9.10
pIC50 [3]: 8.86
pIC50 [10]: 7.20
Structure (SMILES): OCc1cc2nc(-c3cnn4ccc(N5CCC[C@@H]5c5cc(F)ccc5F)nc34)oc2cc1F [Compound 94, (R)-(2-(5-(2-(2,5-difluorophenyl)pyrrolidin-1-yl)pyrazolo[1,5-a]pyrimidin-3-yl)-6-fluorobenzo[d]oxazol-5-yl)methanol]

pIC50 ([1]; numeric values): 8.96
pIC50 [3]: 8.47
pIC50 [10]: 6.65
Structure (SMILES): CN(C)c1cc2[nH]c(-c3cnn4ccc(N5CCC[C@@H]5c5cc(F)ccc5F)nc34)nc2cc1C#N [Compound 144, (R)-2-(5-(2-(2,5-difluorophenyl)pyrrolidin-1-yl)pyrazolo[1,5-a]pyrimidin-3-yl)-6-(dimethylamino)-1H-benzo[d]imidazole-5-carbonitrile]

pIC50 ([1]; numeric values): 9.22
pIC50 [3]: 8.88
pIC50 [10]: 6.93
Structure (SMILES): Fc1ccc(F)c([C@H]2CCCN2c2ccn3ncc(-c4nc5cc(CN6CCOCC6)ccc5[nH]4)c3n2)c1 [Compound 162, (R)-4-((2-(5-(2-(2,5-difluorophenyl)pyrrolidin-1-yl)pyrazolo[1,5-a]pyrimidin-3-yl)-1H-benzo[d]imidazol-5-yl)methyl)morpholine]
